# According to patent US12643912B2, “Macrocyclic compounds, a process for their preparation and pharmaceutical compositions containing them” (LES LABORATOIRES SERVIER, priority 2020, dated 2026):
# pEC50: −log10 of the molar value.
# Tested on: Nrf2 (Keap1-NRF2 nuclear translocation)
# Experiment: U2OS translocation assay (PathHunter U2OS Keap1-NRF2 Nuclear Translocation Cell Line)
# Type: cell-based
# Conditions: Homo sapiens, U2OS, 3 h, read-out: CELLULAR U2OS EC50 (nM), U2OS Keap1-NRF2 nuclear translocation cells, 3 h incubation, luminescence, normalized between 1% DMSO and 10 μM andrographolide
# Description: EXAMPLE 84: U2OS—TRANSLOCATION ASSAY
# U2OS cell have been stably transduced using MMLV-derived retroviral vector, to overexpress Nrf2-Enzyme Donor fusion protein, and Acceptor Enzyme in the nucleus (PathHunter® U2OS Keap1-NRF2 Nuclear Translocation Cell Line, Ref.93-0821C3, DiscoverX).
# PathHunter U2OS cells were grown in Minimum Essential Medium (MEM) (Ref.30-2003, ATCC), 10% FBS (Ref.P30-193306, PanBiotech), 500 μg/ml Geneticine, 250 μg/ml hygromycine, 0.25 μg/ml puromycine (10131-027, 10687-010 and Ref.A1113802 respectively, Life Technologies).
# The night before experiment, cells were harvested using Tryple Xpress (Ref.126905, Bibco) for 5 min at 37° C., resuspended in Opti-MEM™ (Ref.31985-047, Gibco), 1% FBS (Ref.P30-193306, PanBiotech) and then plated into 384 wells plates (Ref.6007680, Perkin Elmer) at the density of 7 500 cells/well in 20 μl. Cell are stored over night at 37° C., 5% CO2 until used. Compounds in 100% DMSO (0.315 μl/well) were resuspended in 20 μl MEM, 1% FBS, 3.4% DMSO. Compounds and andrographolide (10 μM final concentration; Ref.365645-500MG, Aldrich)) as positive control, were dispensed on cell, 5 μl /well, and then incubated for 3 h at 37° C. and 5% CO2. After incubation, Path hunter reagents were dispensed on cells (12 μl /well, Ref.93-0001, DiscoverX) and incubated for 60 min at room temperature in the dark.
# Then, luminescence signal was measured using multimodal reader (Pherastar, BMG Labtech). Data were normalized between 1% DMSO (basal signal) and 10 μM andrographolide (positive signal) and analyzed using Activity Base software.
row,Compound,EC50 [nM]
1,"COc1ccc2cc1[C@H](C)N1Cc3cc(ccc3OS1(=O)=O)OCCCCn1nnc3c(C)c(ccc31)[C@@H]2CC(=O)O [Example 28c, [(2S,8R)-4-Methoxy-2,31-dimethyl-27,27-dioxo-21,26-dioxa-27λ^6-thia-1,14,15,16-tetraazahexacyclo[20.5.3.1^3,70.1^9,130.0^12,160.0^25,29]dotriaconta-3(32),4,6,9(31),10,12,14,22,24,29-decaen-8-yl]acetic acid]",> 3160
2,"COc1ccc2cc1[C@H](C)N1Cc3cc(ccc3OS1(=O)=O)OCCCCn1nnc3c(C)c(ccc31)[C@H]2CC(=O)O [Example 28d, [(2S,8S)-4-methoxy-2,31-dimethyl-27,27-dioxo-21,26-dioxa-27λ^6-thia-1,14,15,16-tetraazahexacyclo[20.5.3.1^3,70.1^9,130.0^12,160.0^25,29]dotriaconta-3(32),4,6,9(31),10,12,14,22,24,29-decaen-8-yl]acetic acid]",879
3,"Cc1ccc2cc1[C@@H](C)N1Cc3cc(cc(C)c3OS1(=O)=O)OCCCCn1nnc3c(C)c(ccc31)[C@@H]2CC(=O)O [Example 29a, [(2R,8R)-2,4,24,31-Tetramethyl-27,27-dioxo-21,26-dioxa-27λ^6-thia-1,14,15,16-tetraazahexacyclo[20.5.3.1^3,70.1^9,130.0^12,160.0^25,29]dotriaconta-3(32),4,6,9(31),10,12,14,22,24,29-decaen-8-yl]acetic acid]",440
4,"Cc1ccc2cc1[C@@H](C)N1Cc3cc(cc(C)c3OS1(=O)=O)OCCCCn1nnc3c(C)c(ccc31)[C@H]2CC(=O)O [Example 29b, [(2R,8S)-2,4,24,31-tetramethyl-27,27-dioxo-21,26-dioxa-27λ^6-thia-1,14,15,16-tetraazahexacyclo[20.5.3.1^3,70.1^9,130.0^12,160.0^25,29]dotriaconta-3(32),4,6,9(31),10,12,14,22,24,29-decaen-8-yl]acetic acid]",68.4
5,"COc1ccc2cc1[C@H](C)N1Cc3cc(ccc3OS1(=O)=O)OCCCCCn1nnc3c(C)c(ccc31)[C@H]2CC(=O)O [Example 31a, [(2S,8S)-4-methoxy-2,32-dimethyl-28,28-dioxo-22,27-dioxa-28λ^6-thia-1,14,15,16-tetraazahexacyclo[21.5.3.1^3,70.1^9,130.0^12,160.0^26,30]tritriaconta-3(33),4,6,9(32),10,12,14,23,25,30-decaen-8-yl]acetic acid]",1430
6,"COc1ccc2cc1[C@@H](C)N1Cc3cc(ccc3OS1(=O)=O)OCCCCCn1nnc3c(C)c(ccc31)[C@H]2CC(=O)O [Example 31b, [(2R,8S)-4-methoxy-2,32-dimethyl-28,28-dioxo-22,27-dioxa-28λ^6-thia-1,14,15,16-tetraazahexacyclo[21.5.3.1^3,70.1^9,130.0^12,160.0^26,30]tritriaconta-3(33),4,6,9(32),10,12,14,23,25,30-decaen-8-yl]acetic acid]",27.4
7,"COc1ccc2cc1[C@H](C)N1Cc3cc(ccc3OS1(=O)=O)OCCCCCn1nnc3c(C)c(ccc31)[C@@H]2CC(=O)O [Example 31c, [(2S,8R)-4-methoxy-2,32-dimethyl-28,28-dioxo-22,27-dioxa-28λ^6-thia-1,14,15,16-tetraazahexacyclo[21.5.3.1^3,70.1^9,130.0^12,160.0^26,30]tritriaconta-3(33),4,6,9(32),10,12,14,23,25,30-decaen-8-yl]acetic acid]",> 3160
8,"COc1ccc2cc1[C@@H](C)N1Cc3cc(ccc3OS1(=O)=O)OCCCCCn1nnc3c(C)c(ccc31)[C@@H]2CC(=O)O [Example 31d, [(2R,8R)-4-methoxy-2,32-dimethyl-28,28-dioxo-22,27-dioxa-28λ^6-thia-1,14,15,16-tetraazahexacyclo[21.5.3.1^3,70.1^9,130.0^12,160.0^26,30]tritriaconta-3(33),4,6,9(32),10,12,14,23,25,30-decaen-8-yl]acetic acid]",326
9,"COc1cc2cc(c1Cl)CN1Cc3cc(ccc3OS1(=O)=O)OCCCCn1nnc3c(C)c(ccc31)C2CC(=O)O (stereo not shown) [Example 38a, [4-Chloro-5-methoxy-31-methyl-27,27-dioxo-21,26-dioxa-27λ^6-thia-1,14,15,16-tetraazahexacyclo[20.5.3.1^3,70.1^9,130.0^12,160.0^25,29]dotriaconta-3(32),4,6,9(31),10,12,14,22,24,29-decaen-8-yl]acetic acid]",2080
10,COc1ccc2cc1[C@@H](C)N1Cc3cc(ccc3OS1(=O)=O)OCCOCCn1nnc3c(C)c(ccc31)[C@H]2CC(=O)O [Example 41a],716
11,COc1ccc2cc1[C@@H](C)N1Cc3cc(ccc3OS1(=O)=O)OCCOCCn1nnc3c(C)c(ccc31)[C@@H]2CC(=O)O [Example 41b],> 3160

# Same assay, conditions: read-out: CELLULAR U2OS EC50; U2OS Keap1-NRF2 nuclear translocation cells, 3 h incubation, luminescence, normalized between 1% DMSO and 10 μM andrographolide
row,Compound,pEC50
1,"Cc1ccc2cc1CN1Cc3cc(ccc3OS1(=O)=O)OCCOCCn1nnc3c(C)c(ccc31)C2CC(=O)O (single isomer, unassigned) [Example 78b, [4,32-Dimethyl-28,28-dioxo-19,22,27-trioxa-28λ^6-thia-1,14,15,16-tetraazahexacyclo[21.5.3.1^3,70.1^9,130.0^12,160.0^26,30]tritriaconta-3(33),4,6,9(32),10,12,14,23,25,30-decaen-8-yl]acetic acid]",6.06
2,"Cc1ccc2cc1CN1Cc3cc(ccc3OS1(=O)=O)OCCCCn1nnc3c(C)c(ccc31)C2C(C)(C)C(=O)Nc1cncnc1 (single isomer, unassigned) [Example 81a, 2-[4,31-Dimethyl-27,27-dioxido-21,26-dioxa-27-thia-1,14,15,16-tetraazahexacyclo[20.5.3.1^3,70.1^9,130.0^12,160.0^25,29]dotriaconta-3(32),4,6,9(31),10,12,14,22,24,29-decaen-8-yl]-2-methyl-N-(pyrimidin-5-yl)propanamide]",6.56
3,"Cc1ccc2cc1CN1Cc3cc(ccc3OS1(=O)=O)OCCCCn1nnc3c(C)c(ccc31)C2C(C)(C)C(=O)Nc1cncnc1 (single isomer, unassigned) [Example 81b, 2-[4,31-Dimethyl-27,27-dioxido-21,26-dioxa-27-thia-1,14,15,16-tetraazahexacyclo[20.5.3.1^3,70.1^9,130.0^12,160.0^25,29]dotriaconta-3(32),4,6,9(31),10,12,14,22,24,29-decaen-8-yl]-2-methyl-N-(pyrimidin-5-yl)propanamide]",< 5.50
4,"Cc1ccc2cc1CN1Cc3cc(ccc3OS1(=O)=O)OCCCCn1nnc3c(C)c(ccc31)C2C(C)(C)C(=O)Nc1cccnc1 (single isomer, unassigned) [Example 82a, 2-[4,31-Dimethyl-27,27-dioxo-21,26-dioxa-27λ^6-thia-1,14,15,16-tetraazahexacyclo[20.5.3.1^3,70.1^9,130.0^12,160.0^25,29]dotriaconta-3(32),4,6,9(31),10,12,14,22,24,29-decaen-8-yl]-2-methyl-N-(pyridin-3-yl)propanamide]",6.20
5,"Cc1ccc2cc1CN1Cc3cc(ccc3OS1(=O)=O)OCCCCn1nnc3c(C)c(ccc31)C2C(C)(C)C(=O)Nc1cccnc1 (single isomer, unassigned) [Example 82b, 2-[4,31-Dimethyl-27,27-dioxo-21,26-dioxa-27λ^6-thia-1,14,15,16-tetraazahexacyclo[20.5.3.1^3,70.1^9,130.0^12,160.0^25,29]dotriaconta-3(32),4,6,9(31),10,12,14,22,24,29-decaen-8-yl]-2-methyl-N-(pyridin-3-yl)propanamide]",< 5.50
